The record followed here is PubChem BioAssay AID330 (DTP/NCI, 2004).

This assay has as its system P388 leukemia ip, CD2F1 mice, survival T/C. Put plainly: NCI In Vivo Anticancer Drug Screen. Data for tumor model P388 Leukemia (intraperitoneal) in CD2F1 (CDF1) mice. Conditions: endpoint: median survival time, higher = longer survival. The essentials:
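Mice carrying the transplanted tumor received test compound or vehicle. Survival was recorded in each group, and the value is the treated-group measurement divided by that of the vehicle-treated control group.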

The mark [1] stands for this setting: dose: 50.0 mg/kg/injection, schedule: Q01DX005 (ip), vehicle: Klucel (hydroxypropylcellulose) (HPC).
Setting [2] is: dose: 100.0 mg/kg/injection, schedule: Q01DX005 (ip), vehicle: Klucel (hydroxypropylcellulose) (HPC).
Setting [3] is: dose: 50.0 mg/kg/injection, schedule: Q01DX001 (ip), vehicle: Klucel (hydroxypropylcellulose) (HPC).
Where [4] appears, read: dose: 100.0 mg/kg/injection, schedule: Q01DX001 (ip), vehicle: Klucel (hydroxypropylcellulose) (HPC).
[5] abbreviates: dose: 25.0 mg/kg/injection, schedule: Q01DX005 (ip), vehicle: Klucel (hydroxypropylcellulose) (HPC).
The mark [6] stands for this setting: dose: 200.0 mg/kg/injection, schedule: Q01DX001 (ip), vehicle: Klucel (hydroxypropylcellulose) (HPC).
[7] abbreviates: dose: 50.0 mg/kg/injection, schedule: Q01DX009 (ip), vehicle: saline with Tween-80.
Where [8] appears, read: dose: 100.0 mg/kg/injection, schedule: Q01DX009 (ip), vehicle: saline with Tween-80.
Where [9] appears, read: dose: 60.0 mg/kg/injection, schedule: Q01DX005 (ip), vehicle: Klucel (hydroxypropylcellulose) (HPC).
Setting [10] is: dose: 60.0 mg/kg/injection, schedule: Q01DX005 (ip), vehicle: saline with Tween-80.
[11] abbreviates: dose: 200.0 mg/kg/injection, schedule: Q01DX009 (ip), vehicle: saline with Tween-80.
[12] abbreviates: dose: 50.0 mg/kg/injection, schedule: Q01DX009 (ip), vehicle: Klucel (hydroxypropylcellulose) (HPC).
The mark [13] stands for this setting: dose: 100.0 mg/kg/injection, schedule: Q01DX009 (ip), vehicle: Klucel (hydroxypropylcellulose) (HPC).
[14] abbreviates: dose: 200.0 mg/kg/injection, schedule: Q01DX009 (ip), vehicle: Klucel (hydroxypropylcellulose) (HPC).
Setting [15] is: dose: 120.0 mg/kg/injection, schedule: Q01DX005 (ip), vehicle: Klucel (hydroxypropylcellulose) (HPC).

The structures appear in SMILES notation. Values joined by “and” are separate entries in the source; they are usually repeats but may differ in a detail not shown here. Identical values can stand only once. Inconclusive results and toxic doses are left out.

In the case of `CC1CCC(=O)N1C` (stereo not given), the T/C is 105 % of control (dose: 100.0 mg/kg/injection, schedule: Q01DX009 (ip), vehicle: saline); 100 % of control (dose: 200.0 mg/kg/injection, schedule: Q01DX009 (ip), vehicle: saline); 113 % of control (dose: 400.0 mg/kg/injection, schedule: Q01DX009 (ip), vehicle: saline).

With `COc1cc(C=Nc2cccc(F)c2)ccc1N(CCCl)CCCl`, the T/C (dose: 0.25 mg/kg/injection, schedule: Q01DX009 (ip), vehicle: other) is 109 % of control; the T/C (dose: 0.5 mg/kg/injection, schedule: Q01DX009 (ip), vehicle: other) was 113 % of control; the T/C (dose: 1.0 mg/kg/injection, schedule: Q01DX009 (ip), vehicle: other) was 122 % of control.

On to `Nc1c(/C=C/c2cc3cc(C4=NCCN4)ccc3o2)[nH]c2cc(C3=NCCN3)ccc12`, for which the T/C was 245 % of control under setting [1]; 110 % of control and 227 % of control under setting [2].

With `CCOC(=O)Nc1cc(NC/C(=N/O)c2ccc(Cl)cc2)c([N+](=O)[O-])c(N)n1`, the T/C is 90 % of control under setting [3] and 87 % of control under setting [4].

As for `O=C1OCCC(O)=C1C=Nc1ccccc1`, the T/C by setting is: (dose: 6.25 mg/kg/injection, schedule: Q01DX005 (ip), vehicle: Klucel (hydroxypropylcellulose) (HPC)) 108 % of control; (dose: 12.5 mg/kg/injection, schedule: Q01DX005 (ip), vehicle: Klucel (hydroxypropylcellulose) (HPC)) 112 % of control; under setting [5], 117 % of control; under setting [4], 100 % of control; under setting [6], 97 % of control; (dose: 400.0 mg/kg/injection, schedule: Q01DX001 (ip), vehicle: Klucel (hydroxypropylcellulose) (HPC)) 99 % of control.

In the case of `CC(N=[N+]=[N-])n1nnnc1-c1ccccc1` (stereo not given), the T/C reads like this: (dose: 25.0 mg/kg/injection, schedule: Q01DX001 (ip), vehicle: Klucel (hydroxypropylcellulose) (HPC)) 101 % of control; under setting [3], 121 % of control; under setting [4], 113 % of control and 120 % of control; under setting [6], 91 % of control.

`CC1=NN(C(=O)c2ccncc2)C(=O)C1N=Nc1ccc2ccccc2c1` (stereo not given): the T/C by setting is: under setting [7], 101 % of control; under setting [8], 102 % of control.

Turning to `CN(C)C1=CC(=Nc2ccccc2)SC(C)(C)C1`, the T/C is, setting by setting: (dose: 15.0 mg/kg/injection, schedule: Q01DX005 (ip), vehicle: saline with Tween-80) 100 % of control; (dose: 30.0 mg/kg/injection, schedule: Q01DX005 (ip), vehicle: saline with Tween-80) 100 % of control; under setting [9], 100 % of control; under setting [10], 99 % of control.

Take `O=C(CCl)NNC(=O)CCl`: the T/C (dose: 12.5 mg/kg/injection, schedule: Q01DX009 (ip), vehicle: Klucel (hydroxypropylcellulose) (HPC)) was 117 % of control.

Take `COC(=O)CC1(C(=O)OC)C2=C(c3ccccc3CC2)N2CCCC21` (stereo not given): the T/C runs as follows: (dose: 11.25 mg/kg/injection, schedule: Q01DX009 (ip), vehicle: Klucel (hydroxypropylcellulose) (HPC)) 110 % of control; (dose: 22.5 mg/kg/injection, schedule: Q01DX009 (ip), vehicle: Klucel (hydroxypropylcellulose) (HPC)) 110 % of control; (dose: 45.0 mg/kg/injection, schedule: Q01DX009 (ip), vehicle: Klucel (hydroxypropylcellulose) (HPC)) 102 % of control; (dose: 90.0 mg/kg/injection, schedule: Q01DX009 (ip), vehicle: Klucel (hydroxypropylcellulose) (HPC)) 112 % of control.

In the case of `COc1ccc(CC2C(=O)OC(=O)C2Cc2ccc(OC)c(OC)c2)cc1OC` (stereo not given), the T/C is 100 % of control (dose: 100.0 mg/kg/injection, schedule: Q04DX003 (ip), vehicle: saline with Tween-80); 90 % of control (dose: 200.0 mg/kg/injection, schedule: Q04DX003 (ip), vehicle: saline with Tween-80); 100 % of control (dose: 400.0 mg/kg/injection, schedule: Q04DX003 (ip), vehicle: saline with Tween-80).

Regarding `CCOC(=O)C1=NN(c2ccccc2)C(=O)C1c1ccccc1` (stereo not given), the T/C is 90 % of control under setting [7], 93 % of control under setting [8] and 107 % of control under setting [11].

For the compound `CCC(=O)/C=C/c1ccc(N(C)C)cc1`, the T/C is, setting by setting: (dose: 100.0 mg/kg/injection, schedule: Q04DX003 (ip), vehicle: Klucel (hydroxypropylcellulose) (HPC)) 93 % of control; (dose: 200.0 mg/kg/injection, schedule: Q04DX003 (ip), vehicle: Klucel (hydroxypropylcellulose) (HPC)) 89 % of control.

In the case of `O=C1C(Cl)=C(NCCO)C(=O)c2ccccc21`, the T/C by setting is: (dose: 25.0 mg/kg/injection, schedule: Q01DX009 (ip), vehicle: Klucel (hydroxypropylcellulose) (HPC)) 101 % of control; under setting [12], 106 % of control; under setting [13], 112 % of control; under setting [14], 102 % of control.

Take `O=C1/C(=C\O)C2CCC3CCC4CC1C342` (stereo not given): the T/C by setting is: under setting [5], 103 % of control; under setting [1], 97 % of control; under setting [2], 107 % of control.

Turning to `CCOP(=O)(OCC)OC(C)CC1CO1` (stereo not given), the T/C (dose: 100.0 mg/kg/injection, schedule: Q04DX002 (ip), vehicle: saline) is 100 % of control; the T/C (dose: 200.0 mg/kg/injection, schedule: Q04DX002 (ip), vehicle: saline) was 98 % of control; the T/C (dose: 400.0 mg/kg/injection, schedule: Q04DX002 (ip), vehicle: saline) was 103 % of control.

Turning to `COC1OC2COc3ccccc3OC2C(NC(N)=S)C1OC` (stereo not given), the T/C reads like this: under setting [9], 105 % of control; under setting [15], 105 % of control; (dose: 240.0 mg/kg/injection, schedule: Q01DX005 (ip), vehicle: Klucel (hydroxypropylcellulose) (HPC)) 105 % of control.

Turning to `O/N=C(/CC(c1ccccc1)N1CCOCC1)c1ccccc1` (stereo not given), the T/C reads like this: under setting [1], 93 % of control; under setting [2], 90 % of control.

Consider `CC(C)(C)C(=O)Nc1c(Cl)c(C2CC2)nn1-c1ccccc1`, for which the T/C is 100 % of control under setting [10]; 102 % of control (dose: 120.0 mg/kg/injection, schedule: Q01DX005 (ip), vehicle: saline with Tween-80); 90 % of control (dose: 240.0 mg/kg/injection, schedule: Q01DX005 (ip), vehicle: saline with Tween-80).

For the compound `N#CC1[C@@H](C(=O)c2ccccc2)N2C=Cc3ccccc3[C@@H]2[C@H]1C#N` (stereo not given in full), the T/C under setting [10] is 90 % of control.

As to `COC(=O)c1nc(N)nc(C(=O)OC)c1C(=O)c1cccc([N+](=O)[O-])c1`, the T/C was 100 % of control under setting [9] and 101 % of control under setting [15].

Take `CN1C(=O)N(C)P123OP1(N(C)C(=O)N1C)(N(C)C(=O)N2C)N(C)C(=O)N3C`: the T/C is, setting by setting: (dose: 60.0 mg/kg/injection, schedule: Q01DX005 (ip), vehicle: saline) 103 % of control; (dose: 120.0 mg/kg/injection, schedule: Q01DX005 (ip), vehicle: saline) 97 % of control; (dose: 240.0 mg/kg/injection, schedule: Q01DX005 (ip), vehicle: saline) 89 % of control.

With `N#CC1C(=O)NC(=S)NC1c1ccccc1` (stereo not given), the T/C runs as follows: under setting [12], 95 % of control; under setting [13], 101 % of control; under setting [14], 98 % of control.

For the compound `CC1CCN(SSc2nc3ccccc3s2)CC1`, the T/C by setting is: under setting [7], 104 % of control and 116 % of control; under setting [8], 107 % of control and 112 % of control; under setting [11], 110 % of control and 118 % of control; (dose: 400.0 mg/kg/injection, schedule: Q01DX009 (ip), vehicle: saline with Tween-80) 114 % of control.
